Measured values taken from patent publication US20120016009A1, “Optimized Methods For Delivery Of DSRNA Targeting The PCSK9 Gene” (priority 2008, published 2012).
In the oligonucleotide strings, read from the 5' end, every base follows the letter of its sugar. An asterisk marks phosphorothioate; unmarked linkages are phosphodiester. Other units and linkages are bracketed, terminal groups are in braces. A string of capitals states the bases alone. d = 2'-deoxy (DNA); r = 2'-OH (RNA)

test system: PCSK9 mRNA; test: PCSK9 siRNA screening in HepG2 cells (lipofectamine 2000 transfection, PCSK9 mRNA by Quantigene, normalized to GAP-DH); type: cell-based, human; conditions: not given
Protocol: HuH-7 cells were obtained from JCRB Cell Bank (Japanese Collection of Research Bioresources) (Shinjuku, Japan, cat. No.: JCRB0403) Cells were cultured in Dulbecco's MEM (Biochrom AG, Berlin, Germany, cat. No. F0435) supplemented to contain 10% fetal calf serum (FCS) (Biochrom AG, Berlin, Germany, cat. No. S0115), Penicillin 100 U/ml, Streptomycin 100 μg/ml (Biochrom AG, Berlin, Germany, cat. No. A2213) and 2 mM L-Glutamin (Biochrom AG, Berlin, Germany, cat. No K0282) at 37° C. in an atmosphere with 5% CO2 in a humidified incubator (Heraeus HERAcell, Kendro Laboratory Products, Langenselbold, Germany) HepG2 and HeLa cells were obtained from American Type Culture Collection (Rockville, Md., cat. No. HB-8065) and cultured in MEM (Gibco Invitrogen, Karlsruhe, Germany, cat. No. 21090-022) supplemented to contain 10% fetal calf serum (FCS) (Biochrom AG, Berlin, Germany, cat. No. S0115), Penicillin 100 U/ml, Streptomycin 100 μg/ml (Biochrom AG, Berlin, Germany, cat. No. A2213), 1× Non Essential Amino Acids (Biochrom AG, Berlin, Germany, cat. No. K-0293), and 1 mM Sodium Pyruvate (Biochrom AG, Berlin, Germany, cat. No. L-0473) at 37° C. in an atmosphere with 5% CO2 in a humidified incubator (Heraeus HERAcell, Kendro Laboratory Products, Langenselbold, Germany).
For transfection with siRNA, HuH7, HepG2, or HeLa cells were seeded at a density of 2.0×10^4 cells/well in 96-well plates and transfected directly. Transfection of siRNA (30 nM for single dose screen) was carried out with lipofectamine 2000 (Invitrogen GmbH, Karlsruhe, Germany, cat. No. 11668-019) as described by the manufacturer.
24 hours after transfection HuH7 and HepG2 cells were lysed and PCSK9 mRNA levels were quantified with the Quantigene Explore Kit (Genosprectra, Dumbarton Circle Fremont, USA, cat. No. QG-000-02) according to the protocol. PCSK9 mRNA levels were normalized to GAP-DH mRNA. For each siRNA eight individual datapoints were collected. siRNA duplexes unrelated to PCSK9 gene were used as control. The activity of a given PCSK9 specific siRNA duplex was expressed as percent PCSK9 mRNA concentration in treated cells relative to PCSK9 mRNA concentration in cells treated with the control siRNA duplex.
Tables 1b and 2b (and FIG. 6A) summarize the results and provide examples of in vitro screens in different cell lines at different doses. Silencing of PCSK9 transcript was expressed as percentage of remaining transcript at a given dose.
Very active sequences are those that have less than 60% of transcript remaining after treatment with a dose less than or equal to 100 nM. Active sequences are those that have less than 90% transcript remaining after treatment with a high dose (100 nM).

Row | Substance | IC50 [nM]
1 | AD-9573: PCSK9 siRNA (sense rArUrGrGrUrCrArCrCrGrArCrUrUrCrGrArGrAdT*dT; antisense rUrCrUrCrGrArArGrUrCrGrGrUrGrArCrCrArUdT*dT) | 1.6

same assay, conditions: 3 nM siRNA

Row | Substance | Mean percent remaining mRNA transcript at siRNA concentration/in cell type 3 nM/HepG2 [%]
2 | AD-9571: PCSK9 siRNA (sense rGrCrCrArGrGrUrGrCrUrGrCrCrUrGrCrUrArCdT*dT; antisense rGrUrArGrCrArGrGrCrArGrCrArCrCrUrGrGrCdT*dT) | 32
3 | AD-9573: PCSK9 siRNA (sense rArUrGrGrUrCrArCrCrGrArCrUrUrCrGrArGrAdT*dT; antisense rUrCrUrCrGrArArGrUrCrGrGrUrGrArCrCrArUdT*dT) | 42
4 | AD-9577: PCSK9 siRNA (sense rCrArCrCrArArGrGrArGrGrCrArGrGrArUrUrCdT*dT; antisense rGrArArUrCrCrUrGrCrCrUrCrCrUrUrGrGrUrGdT*dT) | 31
5 | AD-9587: PCSK9 siRNA (sense rArCrArUrUrUrArUrCrUrUrUrUrGrGrGrUrCrUdT*dT; antisense rArGrArCrCrCrArArArArGrArUrArArArUrGrUdT*dT) | 49

same assay, conditions: 30 nM siRNA

Row | Substance | Mean percent remaining mRNA transcript at siRNA concentration/in cell type 30 nM/HepG2 [%]
6 | AD-9570: PCSK9 siRNA (sense rCrUrGrCrCrGrGrGrCrCrCrArCrArArCrGrCrUdT*dT; antisense rArGrCrGrUrUrGrUrGrGrGrCrCrCrGrGrCrArGdT*dT) | 42
7 | AD-9571: PCSK9 siRNA (sense rGrCrCrArGrGrUrGrCrUrGrCrCrUrGrCrUrArCdT*dT; antisense rGrUrArGrCrArGrGrCrArGrCrArCrCrUrGrGrCdT*dT) | 27
8 | AD-9572: PCSK9 siRNA (sense rCrCrArGrGrUrGrCrUrGrCrCrUrGrCrUrArCrCdT*dT; antisense rGrGrUrArGrCrArGrGrCrArGrCrArCrCrUrGrGdT*dT) | 53
9 | AD-9573: PCSK9 siRNA (sense rArUrGrGrUrCrArCrCrGrArCrUrUrCrGrArGrAdT*dT; antisense rUrCrUrCrGrArArGrUrCrGrGrUrGrArCrCrArUdT*dT) | 36
10 | AD-9574: PCSK9 siRNA (sense rCrUrGrCrCrArArGrGrGrArArGrGrGrCrArCrGdT*dT; antisense rCrGrUrGrCrCrCrUrUrCrCrCrUrUrGrGrCrArGdT*dT) | 74
11 | AD-9575: PCSK9 siRNA (sense rCrCrGrCrUrGrCrCrGrGrCrArArCrUrUrCrCrGdT*dT; antisense rCrGrGrArArGrUrUrGrCrCrGrGrCrArGrCrGrGdT*dT) | 120
12 | AD-9576: PCSK9 siRNA (sense rGrCrArGrArGrArCrUrGrArUrCrCrArCrUrUrCdT*dT; antisense rGrArArGrUrGrGrArUrCrArGrUrCrUrCrUrGrCdT*dT) | 47
13 | AD-9577: PCSK9 siRNA (sense rCrArCrCrArArGrGrArGrGrCrArGrGrArUrUrCdT*dT; antisense rGrArArUrCrCrUrGrCrCrUrCrCrUrUrGrGrUrGdT*dT) | 33
14 | AD-9578: PCSK9 siRNA (sense rCrArUrUrUrArUrCrUrUrUrUrGrGrGrUrCrUrGdT*dT; antisense rCrArGrArCrCrCrArArArArGrArUrArArArUrGdT*dT) | 61
15 | AD-9579: PCSK9 siRNA (sense rArUrCrGrArGrGrArGrGrArCrUrCrCrUrCrUrGdT*dT; antisense rCrArGrArGrGrArGrUrCrCrUrCrCrUrCrGrArUdT*dT) | 113
16 | AD-9580: PCSK9 siRNA (sense rCrCrUrGrCrGrCrGrUrGrCrUrCrArArCrUrGrCdT*dT; antisense rGrCrArGrUrUrGrArGrCrArCrGrCrGrCrArGrGdT*dT) | 112
17 | AD-9581: PCSK9 siRNA (sense rUrGrCrGrCrGrUrGrCrUrCrArArCrUrGrCrCrAdT*dT; antisense rUrGrGrCrArGrUrUrGrArGrCrArCrGrCrGrCrAdT*dT) | 35
18 | AD-9582: PCSK9 siRNA (sense rCrCrArGrCrArUrCrCrArCrGrCrUrUrCrCrUrGdT*dT; antisense rCrArGrGrArArGrCrGrUrGrGrArUrGrCrUrGrGdT*dT) | 37
19 | AD-9583: PCSK9 siRNA (sense rCrCrCrArUrGrUrCrGrArCrUrArCrArUrCrGrAdT*dT; antisense rUrCrGrArUrGrUrArGrUrCrGrArCrArUrGrGrGdT*dT) | 42
20 | AD-9584: PCSK9 siRNA (sense rCrCrCrUrGrGrCrGrGrGrUrGrGrGrUrArCrArGdT*dT; antisense rCrUrGrUrArCrCrCrArCrCrCrGrCrCrArGrGrGdT*dT) | 68
21 | AD-9585: PCSK9 siRNA (sense rCrGrGrCrArArCrUrUrCrCrGrGrGrArCrGrArUdT*dT; antisense rArUrCrGrUrCrCrCrGrGrArArGrUrUrGrCrCrGdT*dT) | 83
22 | AD-9586: PCSK9 siRNA (sense rGrArCrArUrCrArUrUrGrGrUrGrCrCrUrCrCrAdT*dT; antisense rUrGrGrArGrGrCrArCrCrArArUrGrArUrGrUrCdT*dT) | 104
23 | AD-9587: PCSK9 siRNA (sense rArCrArUrUrUrArUrCrUrUrUrUrGrGrGrUrCrUdT*dT; antisense rArGrArCrCrCrArArArArGrArUrArArArUrGrUdT*dT) | 63
24 | AD-9588: PCSK9 siRNA (sense rGrGrUrCrArCrCrGrCrUrGrCrCrGrGrCrArArCdT*dT; antisense rGrUrUrGrCrCrGrGrCrArGrCrGrGrUrGrArCrCdT*dT) | 66
25 | AD-9589: PCSK9 siRNA (sense rCrArCrCrGrCrUrGrCrCrGrGrCrArArCrUrUrCdT*dT; antisense rGrArArGrUrUrGrCrCrGrGrCrArGrCrGrGrUrGdT*dT) | 85
26 | AD-9590: PCSK9 siRNA (sense rArCrCrArArCrUrUrUrGrGrCrCrGrCrUrGrUrGdT*dT; antisense rCrArCrArGrCrGrGrCrCrArArArGrUrUrGrGrUdT*dT) | 122
27 | AD-9591: PCSK9 siRNA (sense rArCrUrGrUrCrCrCrUrCrCrUrUrGrArGrCrArCdT*dT; antisense rGrUrGrCrUrCrArArGrGrArGrGrGrArCrArGrUdT*dT) | 95
28 | AD-9592: PCSK9 siRNA (sense rCrCrUrArGrArCrArCrCrArGrCrArUrArCrArGdT*dT; antisense rCrUrGrUrArUrGrCrUrGrGrUrGrUrCrUrArGrGdT*dT) | 55
29 | AD-9593: PCSK9 siRNA (sense rCrArGrGrGrUrCrArUrGrGrUrCrArCrCrGrArCdT*dT; antisense rGrUrCrGrGrUrGrArCrCrArUrGrArCrCrCrUrGdT*dT) | 55
30 | AD-9594: PCSK9 siRNA (sense rGrCrUrGrCrCrGrGrCrArArCrUrUrCrCrGrGrGdT*dT; antisense rCrCrCrGrGrArArGrUrUrGrCrCrGrGrCrArGrCdT*dT) | 95

same assay, conditions: 100 nM siRNA

Row | Substance | Mean percent remaining mRNA transcript at siRNA concentration/in cell type 100 nM/HepG2 [%]
31 | AD-9570: PCSK9 siRNA (sense rCrUrGrCrCrGrGrGrCrCrCrArCrArArCrGrCrUdT*dT; antisense rArGrCrGrUrUrGrUrGrGrGrCrCrCrGrGrCrArGdT*dT) | 35
32 | AD-9572: PCSK9 siRNA (sense rCrCrArGrGrUrGrCrUrGrCrCrUrGrCrUrArCrCdT*dT; antisense rGrGrUrArGrCrArGrGrCrArGrCrArCrCrUrGrGdT*dT) | 47
33 | AD-9578: PCSK9 siRNA (sense rCrArUrUrUrArUrCrUrUrUrUrGrGrGrUrCrUrGdT*dT; antisense rCrArGrArCrCrCrArArArArGrArUrArArArUrGdT*dT) | 49
34 | AD-9584: PCSK9 siRNA (sense rCrCrCrUrGrGrCrGrGrGrUrGrGrGrUrArCrArGdT*dT; antisense rCrUrGrUrArCrCrCrArCrCrCrGrCrCrArGrGrGdT*dT) | 52
35 | AD-9586: PCSK9 siRNA (sense rGrArCrArUrCrArUrUrGrGrUrGrCrCrUrCrCrAdT*dT; antisense rUrGrGrArGrGrCrArCrCrArArUrGrArUrGrUrCdT*dT) | 81
36 | AD-9589: PCSK9 siRNA (sense rCrArCrCrGrCrUrGrCrCrGrGrCrArArCrUrUrCdT*dT; antisense rGrArArGrUrUrGrCrCrGrGrCrArGrCrGrGrUrGdT*dT) | 67
37 | AD-9591: PCSK9 siRNA (sense rArCrUrGrUrCrCrCrUrCrCrUrUrGrArGrCrArCdT*dT; antisense rGrUrGrCrUrCrArArGrGrArGrGrGrArCrArGrUdT*dT) | 75
38 | AD-9592: PCSK9 siRNA (sense rCrCrUrArGrArCrArCrCrArGrCrArUrArCrArGdT*dT; antisense rCrUrGrUrArUrGrCrUrGrGrUrGrUrCrUrArGrGdT*dT) | 46
39 | AD-9594: PCSK9 siRNA (sense rGrCrUrGrCrCrGrGrCrArArCrUrUrCrCrGrGrGdT*dT; antisense rCrCrCrGrGrArArGrUrUrGrCrCrGrGrCrArGrCdT*dT) | 80
